In patent US20250145589A1, “PYRIDINE DERIVATIVE AND USE THEREOF” (SICHUAN HUIYU PHARMACEUTICAL CO., LTD., priority 2021, published 2025):

Key:
[1] = test system: MIA PaCa-2 cells (KRAS G12C mutant); test: MIA PaCa-2 cell anti-proliferation (CellTiter-Glo); type: cell-based; conditions: Homo sapiens, 72 h; MIA Paca-2 cells, 3 days, Table 7; read-out: MIA PaCa-2 (IC50)
Outline: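 Viable-cell luminescence (CellTiter-Glo, ≥30 min at 25 °C) measured after a 3-day, 37 °C exposure to compounds at 9 points, 4-fold spaced, in DMEM containing 10% FBS plus 2.5% horse serum. IC50 derived versus no-inhibitor wells.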

[2] = test system: MIA PaCa-2-AMGR drug-resistant cell line; test: MIA PaCa-2-AMGR drug-resistant cell proliferation inhibitory activity test; type: cell-based; conditions: 72 h, MIA PaCa-2-AMGR drug-resistant cells, 3 days incubation, CellTiter-Glo
Outline: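 MIA PaCa-2 line made resistant by stepwise AMG510 exposure up to 1 μM. Cells seeded at 4×10^3/well overnight, then treated with 8 concentrations (5-fold dilutions) for 3 days at 37° C, 5% CO2 in DMEM with 10% FBS + 2.5% horse serum. Viability by CellTiter-Glo luminescence; IC50 versus no-inhibitor control.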

Row | Structure (SMILES) | IC50 [1] [nM] | IC50 [2] [nM]
1 | COc1ncc(-c2ccc3ncnc(N4CCN(C(=O)/C=C/C(C)=O)CC4)c3c2)cc1NS(=O)(=O)c1ccc(C#N)cc1F [Example 123, (E)-4-cyano-2-fluoro-N-(2-methoxy-5-(4-(4-(4-oxopent-2-enoyl)piperazin-1-yl)quinazolin-6-yl)pyridin-3-yl)benzenesulfonamide] | 84.1 | 328
2 | COc1ncc(-c2ccc3ncnc(N4CCN(C(=O)/C=C/C(C)=O)CC4)c3c2)cc1NS(=O)(=O)c1ccc(C(F)(F)F)cc1F [Example 124, (E)-2-fluoro-N-(2-methoxy-5-(4-(4-(4-oxopent-2-enoyl)piperazin-1-yl)quinazolin-6-yl)pyridin-3-yl)-4-(trifluoromethyl)benzenesulfonamide] | 58.4 | 83.9
3 | COc1ncc(-c2ccc3ncnc(N4CCN(C(=O)/C=C/C(C)=O)CC4)c3n2)cc1NS(=O)(=O)c1c(F)cccc1F [Example 131, (E)-2,6-difluoro-N-(2-methoxy-5-(4-(4-(4-oxopent-2-enoyl)piperazin-1-yl)pyrido[3,2-d]pyrimidin-6-yl)pyridin-3-yl)benzenesulfonamide] | 25 | 29.6
4 | COc1ncc(-c2ccc3ncnc(N4C5CCC4CN(C(=O)/C=C/C(C)=O)C5)c3c2)cc1NS(=O)(=O)c1ccc(F)cc1F [Example 144, 2,4-difluoro-N-(2-methoxy-5-(4-(3-((E)-4-oxopent-2-enoyl)-3,8-diazabicyclo[3.2.1]octan-8-yl)quinazolin-6-yl)pyridin-3-yl)benzenesulfonamide] | 58.7 | 56.6
5 | COc1ncc(-c2ccc3ncnc(N4CC5CCC(C4)N5C(=O)/C=C/C(C)=O)c3c2)cc1NS(=O)(=O)c1c(F)cccc1F [Example 145, 2,6-difluoro-N-(2-methoxy-5-(4-(8-((E)-4-oxopent-2-enoyl)-3,8-diazabicyclo[3.2.1]octan-3-yl)quinazolin-6-yl)pyridin-3-yl)benzenesulfonamide] | 77.2 | 113
6 | COc1ncc(-c2ccc3ncnc(N4CCC5(CC4)CN(C(=O)/C=C/C(C)=O)C5)c3c2)cc1NS(=O)(=O)c1ccccc1F [Example 150, (E)-2-fluoro-N-(2-methoxy-5-(4-(2-(4-oxopent-2-enoyl)-2,7-diazaspiro[3.5]nonan-7-yl)quinazolin-6-yl)pyridin-3-yl)benzenesulfonamide] | 58.5 | 55.1
7 | COc1ncc(-c2ccc3ncnc(N4CCN(C(=O)/C=C/C(C)=O)C[C@@H]4C)c3c2)cc1NS(=O)(=O)c1ccccc1F [Example 152, (S,E)-2-fluoro-N-(2-methoxy-5-(4-(2-methyl-4-(4-oxopent-2-enoyl)piperazin-1-yl)quinazolin-6-yl)pyridin-3-yl)benzenesulfonamide] | 68.8 | 52.1
8 | COc1ncc(-c2ccc3ncnc(N4CCN(C(=O)/C=C/C(C)=O)C[C@@H]4C)c3c2)cc1NS(=O)(=O)c1ccc(F)cc1 [Example 153, (S,E)-4-fluoro-N-(2-methoxy-5-(4-(2-methyl-4-(4-oxopent-2-enoyl)piperazin-1-yl)quinazolin-6-yl)pyridin-3-yl)benzenesulfonamide] | 56.7 | 49.7
9 | COc1ncc(-c2ccc3ncnc(N4CCN(C(=O)/C=C/C(C)=O)C[C@@H]4C)c3c2)cc1NS(=O)(=O)c1c(F)cc(F)cc1F [Example 154, (S,E)-2,4,6-trifluoro-N-(2-methoxy-5-(4-(2-methyl-4-(4-oxopent-2-enoyl)piperazin-1-yl)quinazolin-6-yl)pyridin-3-yl)benzenesulfonamide] | 28.8 | 32.2
10 | COc1ncc(-c2ccc3ncnc(N4CC5CCC(C4)N5C(=O)/C=C/C(C)=O)c3c2)cc1NS(=O)(=O)c1c(F)cc(F)cc1F [Example 155] | 77.6 | 112
11 | COc1ncc(-c2ccc3ncnc(N4CC5CCC4CN5C(=O)/C=C/C(C)=O)c3c2)cc1NS(=O)(=O)c1ccc(F)cc1F (centres unmarked) [Example 158, (E)-2,4-difluoro-N-(2-methoxy-5-(4-(5-(4-oxopent-2-enoyl)-2,5-diazabicyclo[2.2.2]octan-2-yl)quinazolin-6-yl)pyridin-3-yl)benzenesulfonamide] | 140 | 136
12 | CC(=O)/C=C/C(=O)N1CCN(c2ncnc3ccc(-c4cnc(OCC(F)(F)F)c(NS(=O)(=O)c5ccc(F)cc5F)c4)cc23)CC1 [Example 159, (E)-2,4-difluoro-N-(5-(4-(4-(4-oxopent-2-enoyl)piperazin-1-yl)quinazolin-6-yl)-2-(2,2,2-trifluoroethoxy)pyridin-3-yl)benzenesulfonamide] | 357 | 226
13 | COc1ncc(-c2ccc3ncnc(N4CCN(C(=O)/C=C/C(C)=O)CC4)c3c2)cc1NS(=O)(=O)c1sc(C)nc1C [Example 160, (E)-N-(2-methoxy-5-(4-(4-(4-oxopent-2-enoyl)piperazin-1-yl)quinazolin-6-yl)pyridin-3-yl)-2,4-dimethylthiazole-5-sulfonamide] | 48.4 | 53.8
14 | COc1ncc(-c2ccc3ncnc(N4CCC5(CC4)CN(C(=O)/C=C/C(C)=O)C5)c3c2)cc1NS(=O)(=O)c1ccc(F)cc1 [Example 161, (E)-4-fluoro-N-(2-methoxy-5-(4-(2-(4-oxopent-2-enoyl)-2,7-diazaspiro[3.5]nonan-7-yl)quinazolin-6-yl)pyridin-3-yl)benzenesulfonamide] | 67.8 | 55.3
15 | COc1ncc(-c2ccc3ncnc(N4CCN(C(=O)/C=C/C(C)=O)CC4)c3c2)cc1NS(=O)(=O)c1ncc(Cl)s1 [Example 165, (E)-5-chloro-N-(2-methoxy-5-(4-(4-(4-oxopent-2-enoyl)piperazin-1-yl)quinazolin-6-yl)pyridin-3-yl)thiazole-2-sulfonamide] | 250 | 173
16 | C=C(C(C)=O)C(=O)N1CCN(c2ncnc3ccc(-c4cnc(OC)c(NS(=O)(=O)c5ccc(F)cc5F)c4)cc23)CC1 [Example 168, 2,4-difluoro-N-(2-methoxy-5-(4-(4-(2-methylene-3-oxobutanoyl)piperazin-1-yl)quinazolin-6-yl)pyridin-3-yl)benzenesulfonamide] | 48.5 | 192
17 | COc1ncc(-c2ccc3ncnc(N4CCN(C(=O)/C=C/C(C)=O)CC4)c3c2)cc1NS(=O)(=O)c1ccc(F)cc1Cl [Example 169, (E)-2-chloro-4-fluoro-N-(2-methoxy-5-(4-(4-(4-oxopent-2-enoyl)piperazin-1-yl)quinazolin-6-yl)pyridin-3-yl)benzenesulfonamide] | 31.7 | 54.4
18 | COc1ncc(-c2ccc3ncnc(N4CCN(C(=O)/C=C/C(C)=O)CC4)c3c2)cc1NS(C)(=O)=O [Example 170, (E)-N-(2-methoxy-5-(4-(4-(4-oxopent-2-enoyl)piperazin-1-yl)quinazolin-6-yl)pyridin-3-yl)methane-sulfonamide] | 118 | 183
19 | COc1ncc(-c2ccc3ncnc(N4CCC5(CC4)CN(C(=O)/C=C/C(C)=O)C5)c3c2)cc1NS(=O)(=O)c1ccc(F)cc1Cl [Example 171, (E)-2-chloro-4-fluoro-N-(2-methoxy-5-(4-(2-(4-oxopent-2-enoyl)-2,7-diazaspiro[3.5]nonan-7-yl)quinazolin-6-yl)pyridin-3-yl)benzene-sulfonamide] | 12.6 | 32.9
20 | COc1ncc(-c2ccc3ncnc(N4CCN(C(=O)/C=C/C(C)=O)CC4)c3c2)cc1NS(=O)(=O)c1ccncc1C [Example 172, (E)-N-(2-methoxy-5-(4-(4-(4-oxopent-2-enoyl)piperazin-1-yl)quinazolin-6-yl)pyridin-3-yl)-3-methyl-pyridine-4-sulfonamide] | 171 | 256
21 | COc1ncc(-c2ccc3ncnc(N4CCN(C(=O)/C=C/C(C)=O)C[C@@H]4C)c3c2)cc1NS(=O)(=O)c1sc(C)nc1C [Example 173, (S,E)-N-(2-methoxy-5-(4-(2-methyl-4-(4-oxopent-2-enoyl)piperazin-1-yl)quinazolin-6-yl)pyridin-3-yl)-2,4-dimethyl-thiazole-5-sulfonamide] | 9.2 | 62.6
22 | COc1ncc(-c2ccc3ncnc(N4CCN(C(=O)/C=C/C(C)=O)C[C@@H]4C)c3c2)cc1NS(=O)(=O)c1ccc(F)cc1Cl [Example 174, (S,E)-2-chloro-4-fluoro-N-(2-methoxy-5-(4-(2-methyl-4-(4-oxopent-2-enoyl)piperazin-1-yl)quinazolin-6-yl)pyridin-3-yl)benzene-sulfonamide] | 15.6 | 26.3
23 | COc1ncc(-c2ccc3ncnc(N4CC5CCC(C4)N5C(=O)/C=C/C(C)=O)c3c2)cc1NS(=O)(=O)c1ccc(F)cc1Cl [Example 175, 2-chloro-4-fluoro-N-(2-methoxy-5-(4-(8-((E)-4-oxopent-2-enoyl)-3,8-diazabicyclo [3.2.1]octan-3-yl)quinazolin-6-yl)pyridin-3-yl)benzene-sulfonamide] | 22.8 | 36.7
24 | COc1ncc(-c2ccc3ncnc(N4CC5CCC(C4)N5C(=O)/C=C/C(C)=O)c3c2)cc1NS(=O)(=O)c1sc(C)nc1C [Example 176, N-(2-methoxy-5-(4-(8-((E)-4-oxopent-2-enoyl)-3,8-diazabicyclo [3.2.1]octan-3-yl)quinazolin-6-yl)pyridin-3-yl)-2,4-dimethyl-thiazole-5-sulfonamide] | 29.3 | 48.6
25 | COc1ncc(-c2ccc3ncnc(N4CCN(C(=O)/C=C/C(C)=O)CC4)c3c2)cc1NS(=O)(=O)c1ccc(Cl)cc1F [Example 177, (E)-4-chloro-2-fluoro-N-(2-methoxy-5-(4-(4-(4-oxopent-2-enoyl)piperazin-1-yl)quinazolin-6-yl)pyridin-3-yl)benzene-sulfonamide] | 25.9 | 36.6
